One test relates to aged mice. Also noted: method as in PMID 16221768, PMID 36697430. Particulars: chronic low-dose; cited from earlier work.
In the next test the test system is mHtt. Also noted: method as in PMID 20929960. Particulars: pharmacological activation of CB1R, HD mouse models; cited from earlier work.
The target in another test is T1, CB1R (Mus musculus, UniProt P47746).
T1 construct: from tissue
Description: biochemical. The test is classed as binding. Particulars: for Fraction high: CP55940 inhibition curve; for IC50: CP55940 vs [3H]SR141716A 2 nmol/L.

Where two headings read alike, the source gives them in different places.

T1 sequence (P47746 whole entry): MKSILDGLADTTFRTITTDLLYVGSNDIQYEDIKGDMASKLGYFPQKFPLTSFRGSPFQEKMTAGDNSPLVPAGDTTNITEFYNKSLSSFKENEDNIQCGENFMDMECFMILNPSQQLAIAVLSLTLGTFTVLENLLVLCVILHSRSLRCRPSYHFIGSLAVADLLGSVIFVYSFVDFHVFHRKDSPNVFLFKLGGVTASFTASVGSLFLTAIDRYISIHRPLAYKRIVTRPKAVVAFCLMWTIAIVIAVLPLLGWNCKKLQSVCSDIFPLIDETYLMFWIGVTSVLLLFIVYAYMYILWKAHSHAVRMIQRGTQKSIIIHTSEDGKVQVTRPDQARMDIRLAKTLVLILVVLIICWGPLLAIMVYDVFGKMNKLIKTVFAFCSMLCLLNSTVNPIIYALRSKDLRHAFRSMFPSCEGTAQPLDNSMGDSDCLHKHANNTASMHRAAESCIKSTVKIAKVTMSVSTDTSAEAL

With `CCCCCc1cc(O)c2c(c1)OC(C)(C)[C@@H]1CCC(C)=C[C@@H]21` [THC, Δ9-tetrahydrocannabinol], in the test with aged mice, the cognitive function result is recorded as “improves”, the cortical spine density result is listed as “increasing” and the synaptic protein expression entry is given as “increasing”. Besides, the mHtt accumulation result with mHtt was “alleviates”.
Broadly, the IC50 is the concentration that gives 50% inhibition. Regarding `CCCCCCC(C)(C)c1ccc([C@@H]2C[C@H](O)CC[C@H]2CCCO)c(O)c1` [CP55940], the Fraction high on CB1R (hippocampal membranes of R6/1 WIN (1 mg/kg) mice) is given as 0.6378^$$$; on CB1R (hippocampal membranes of WT WIN (1 mg/kg) mice), 0.4654; at CB1R (hippocampal membranes of WT veh mice), 0.4696. Further, the IC50 was 64.4 ± 12.1 nM at CB1R (IC50 (single binding site), hippocampal membranes of R6/1 veh mice); 10.9 ± 16 nM at CB1R (IC50, first value (high-affinity site), hippocampal membranes of R6/1 WIN (1 mg/kg) mice); 18 ± 16.7 nM against CB1R (IC50, first value (high-affinity site), hippocampal membranes of WT WIN (1 mg/kg) mice); 23.2 ± 18.8 nM at CB1R (IC50, first value (high-affinity site), hippocampal membranes of WT veh mice); 382 nM at CB1R (read-out: IC50, second value (low-affinity site), hippocampal membranes of R6/1 WIN (1 mg/kg) mice); 850 nM on CB1R (read-out: IC50, second value (low-affinity site), hippocampal membranes of WT WIN (1 mg/kg) mice). Also, on CB1R (read-out: IC50, second value (low-affinity site), hippocampal membranes of WT veh mice), the IC50 is 1140 nM.
